Test results published in patent US7365069B2, “Pyrimidone derivatives” (Bexel Pharmaceuticals Inc., priority 2002, dated 2008).

Experiments:
[1] = system: MCF-7; assay: DTP human tumor cell line one-dose prescreen, MCF-7; assay type: cell-based; conditions: MCF7, 48 hours, Alamar Blue, test/control, read-out: Percentage growth Breast MCF-7
[2] = system: SF-268; assay: DTP human tumor cell line one-dose prescreen, SF-268; assay type: cell-based; conditions: 48 hours, Alamar Blue, test/control, read-out: Percentage growth CNS SF-268
[3] = system: NCI-H460; assay: DTP human tumor cell line one-dose prescreen, NCI-H460; assay type: cell-based; conditions: 48 hours, Alamar Blue, test/control, read-out: Percentage growth Lung NCI-H460
[4] = target: T1, COX-2 (Homo sapiens, UniProt P35354); assay: Human whole blood assay, COX-2 inhibition (PGE2 ELISA after LPS); assay type: cell-based; conditions: LPS 24 h
T1 construct: incubation of human blood with lipopolysaccharide (LPS), which induces COX-2 production in the blood; endogenous in cells; host or cells: fresh human whole blood from volunteers, treated with aspirin and then LPS
T1 sequence (P35354 18-604): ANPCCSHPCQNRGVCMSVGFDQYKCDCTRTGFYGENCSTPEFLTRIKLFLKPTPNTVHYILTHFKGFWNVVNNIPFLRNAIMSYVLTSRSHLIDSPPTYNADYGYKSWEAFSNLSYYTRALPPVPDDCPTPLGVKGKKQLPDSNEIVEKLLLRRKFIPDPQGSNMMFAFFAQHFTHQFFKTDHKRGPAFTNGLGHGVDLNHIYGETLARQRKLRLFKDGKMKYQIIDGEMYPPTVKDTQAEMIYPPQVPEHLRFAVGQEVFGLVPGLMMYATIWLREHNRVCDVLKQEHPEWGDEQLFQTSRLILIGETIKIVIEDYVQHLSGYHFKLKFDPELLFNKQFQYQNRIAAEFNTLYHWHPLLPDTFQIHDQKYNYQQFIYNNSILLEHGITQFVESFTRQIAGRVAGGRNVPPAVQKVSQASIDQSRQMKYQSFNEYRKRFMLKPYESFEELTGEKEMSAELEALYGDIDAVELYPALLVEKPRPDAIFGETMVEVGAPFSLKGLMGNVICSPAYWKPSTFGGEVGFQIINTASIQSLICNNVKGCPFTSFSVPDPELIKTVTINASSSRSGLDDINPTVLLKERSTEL
Outline: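 Fresh EDTA blood from healthy male donors was given aspirin (10 μg/ml) to inactivate COX-1. LPS (10 μg/ml) was then added together with test agent or vehicle, and the blood was incubated 24 h at 37° C. Plasma PGE2 was measured by ELISA.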

[5] = system: Male Wistar rats; assay: Rat carrageenan paw edema test; assay type: in vivo; conditions: 10 mg/kg body weight, oral, paw volume 3 hours after carrageenan, read-out: Rat Paw Edema model % inhibition
Experimental: Rat Carrageenan Paw Edema Test
(§1) The carrageenan paw edema test is performed as described by Winter et al (Proc. Soc. Exp. Biol. Med, 111, 544, 1962). Male Wistar rats are selected and the body weights are equivalent within each group. The rats are fasted for eighteen hours with free access to water. The rats are dosed orally with the test compound suspended in vehicle containing 0.5% methylcellulose. The control rats are administered the vehicle alone. After an hour, the rats are injected with 0.1 ml of 1% Carrageenan solution in 0.9% saline into the sub-plantar surface of the right hind paw. Paw volume is measured using water plethysmograph before and after 3 hours of carrageenan injection. The average of foot swelling in drug treated animals is compared with that of control animals. Anti-inflammatory activity is expressed as the percentage inhibition of edema compared with control group [Arzneim-Forsch/Drug Res., 43(I), 1, 44-50,1993; Ottemess and Bliven, Laboratory Models for Testing NSAIDs, In Non-Steroidal Anti-Inflammatory Drugs, (J. Lombardino, ed. 1985)]. In order to evaluate their role on the ulcer formation, the animals are sacrificed and the stomach is taken out and flushed with 1% formalin. The stomach is opened along the greater curvature. The haemorrhagic puncta and sulci are identified microscopically and images are captured. The stomach lesions are calculated.

[6] = system: Male Wistar rats; assay: Gastroulcerogenic potential (stomach lesions after the paw edema test); assay type: in vivo; conditions: 10 mg/kg body weight, oral, rat
Experimental: as §1

[7] = system: TNF-α; assay: TNF-α production in LPS-stimulated human whole blood; assay type: cell-based; conditions: LPS 4 h
Outline: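 Human whole blood pre-incubated with compound 15 min at 37° C., then stimulated with LPS (Salmonella abortus equi, 1 μg/ml) for 4 h at 37° C. in 5% CO2. TNF-α quantified by ELISA.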

[8] = system: IL-6; assay: IL-6 production in LPS-stimulated human whole blood; assay type: cell-based; conditions: LPS 4 h
Experimental: This assay determines the effect of test compounds on the production of IL-6 from human whole blood. Compounds are tested for their ability to downregulate the production of IL-6 in activated whole blood. The test compounds are pre-incubated for 15 minutes at 37° C. and then stimulated with Lipopolysaccharide (Salmonella abortus equi, 1 μg/ml) for 4 h at 37° C. in 5% CO2. The levels of Interleukin-6 are estimated using Enzyme linked Immunosorbent assay performed in a 96 well format as per the procedure of the manufacturer (Cayman Chemical, Ann Arbor, USA).

| melting point [°C] | SMILES | activity at 50 µM [1] [%] | activity at 50 µM [2] [%] | activity at 50 µM [3] [%] | inhibition in vivo at 10 mg/kg [5] [%] | Gastroulcerogenic potential (% incidence of ulceration) [6] [%] | inhibition at 1 µM [8] [%] | other results |
| --- | --- | --- | --- | --- | --- | --- | --- | --- |
| > 300 | CNc1nc(-c2ccc(F)cc2)n(-c2ccc(S(C)(=O)=O)cc2)c(=O)c1C(N)=O [Example 49, 5-carboxamido-2-(4-fluorophenyl)-4-(methylamino)-1-[4-(methylsulfonyl)phenyl]-6-oxo-1,6-dihydropyrimidine] | 79 | 88 | 72 |  |  |  |  |
| 196 to 198 | CSc1ccc(-c2nc(SC)c(C#N)c(=O)n2-c2ccc(C)cc2)cc1 [Example 6, 5-cyano-1-(4-methylphenyl)-4-(methylthio)-2-[4-(methylthio)phenyl]-6-oxo-1,6-dihydropyrimidine] |  |  |  | 40.2 | 25 |  | inhibition at 1 µM ([4]; 1 μM): 55.7%; inhibition at 1 µM [7]: 28.8%; inhibition at 0.25 µM ([8]; 0.25 μM): 41.4% |
| 219 to 222 | CNc1nc(-c2ccc(F)cc2)n(-c2ccc(SC)cc2)c(=O)c1C#N [Example 56, 5-cyano-2-(4-fluorophenyl)-4-(methylamino)-1-[4-(methylthio)phenyl]-6-oxo-1,6-dihydropyrimidine] | 63 | 87 | 54 |  |  |  |  |
| 255 to 258 | CS(=O)(=O)c1ccc(-n2c(-c3ccc(F)cc3)nc(N3CCOCC3)c(C(N)=O)c2=O)cc1 [Example 50, 5-carboxamido-2-(4-fluorophenyl)-1-[4-(methylsulfonyl)phenyl]-4-morpholin-4-yl-6-oxo-1,6-dihydropyrimidine] | 92 | 97 | 94 |  |  |  |  |
| 206 to 207 | CSc1ccc(-n2c(-c3ccc(Cl)cc3)nc(SC)c(C#N)c2=O)cc1 [Example 1, 5-cyano-2-(4-chlorophenyl)-4-(methylthio)-1-[4-(methylthio)phenyl]-6-oxo-1,6-dihydropyrimidine] |  |  |  | 29 | 75 |  | inhibition at 10 µM ([4]; 10 μM): 13%; inhibition at 0.1 µM ([7]; 0.1 μM): 56.9%; inhibition at 0.1 µM ([8]; 0.1 μM): 52.8% |
| 233 to 236 | CSc1ccc(-c2nc(SC)c(C#N)c(=O)n2-c2ccc(C(C)(C)C)cc2)cc1 [Example 22, 1-(4-tert-butylphenyl)-5-cyano-4-(methylthio)-2-[4-(methylthio)phenyl]-6-oxo-1,6-dihydropyrimidine] | 83 |  | 80 |  |  | 66.3 | inhibition at 1 µM [7]: 62.7% |
| 242 to 244 | CSc1nc(-c2ccc(S(C)(=O)=O)cc2)n(-c2ccc(C)cc2)c(=O)c1C#N [Example 7, 5-cyano-2-[(4-methylsulphonyl)phenyl]-4-(methylthio)-1-(4-methylphenyl)-6-oxo-1,6-dihydropyrimidine] |  |  |  | 28.1 | 25 | 37.1 | inhibition at 0.25 µM ([4]; 0.25 μM): 31.7% |
| 234 to 236 | CSc1ccc(-c2nc(SC)c(C#N)c(=O)n2-c2ccc(C)c(C)c2)cc1 [Example 10, 5-cyano-1-(3,4-dimethylphenyl)-4-(methylthio)-2-[4-(methylthio)phenyl]-6-oxo-1,6-dihydropyrimidine] |  |  |  | 68.6 | 0 | 48.6 | inhibition at 0.1 µM ([4]; 0.1 μM): 62.8%; inhibition at 10 µM ([7]; 10 μM): 26.4% |
